{
  "source": "paper PMC9636434",
  "about": "“Discovery of small molecule agonists of the Relaxin Family Peptide Receptor 2” (Communications Biology, 2022)",
  "assay_type_in_all_cases": "cell-based",
  "key": {"mouse RXFP2": {"biological_target": "T1, mouse RXFP2 (Mus musculus, UniProt Q91ZZ5)", "T1 construct": "FLAG (N); expressed in transfected cells; host or cells: HEK293T-CRE-Luc (transient)", "T1 sequence (Q91ZZ5 whole entry)": "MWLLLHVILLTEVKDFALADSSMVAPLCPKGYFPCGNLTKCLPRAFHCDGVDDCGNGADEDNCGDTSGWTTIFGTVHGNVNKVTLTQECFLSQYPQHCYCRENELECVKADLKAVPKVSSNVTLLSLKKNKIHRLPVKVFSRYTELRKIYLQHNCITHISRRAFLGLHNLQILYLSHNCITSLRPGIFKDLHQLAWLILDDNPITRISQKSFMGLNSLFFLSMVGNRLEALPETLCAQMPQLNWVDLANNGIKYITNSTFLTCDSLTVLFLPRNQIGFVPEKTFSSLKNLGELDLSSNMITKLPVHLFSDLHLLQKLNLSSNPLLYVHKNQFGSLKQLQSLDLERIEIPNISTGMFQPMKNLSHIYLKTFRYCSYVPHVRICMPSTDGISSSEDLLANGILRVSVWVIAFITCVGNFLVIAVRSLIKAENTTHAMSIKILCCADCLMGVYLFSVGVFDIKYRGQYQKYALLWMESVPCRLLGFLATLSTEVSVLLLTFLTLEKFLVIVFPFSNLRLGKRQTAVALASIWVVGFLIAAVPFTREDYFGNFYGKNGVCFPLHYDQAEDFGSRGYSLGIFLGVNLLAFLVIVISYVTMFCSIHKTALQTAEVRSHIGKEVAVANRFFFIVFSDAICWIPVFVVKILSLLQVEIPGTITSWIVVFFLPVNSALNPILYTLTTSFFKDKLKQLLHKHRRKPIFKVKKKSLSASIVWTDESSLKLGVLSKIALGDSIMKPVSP", "assay": "CRE-luciferase reporter assay in HEK293T-CRE-Luc cells transiently transfected with mouse Rxfp2", "excerpt": "Therefore, we examined the capacity of the identified human RXFP2 agonists to activate murine RXFP2. […] The observed difference between CRE-luciferase reporter assays with human and mouse RXFP2 might be due to a lower expression of the receptor in transiently transfected mouse RXFP2 cells compared to the stably transfected human RXFP2 cell line.\nHEK293T-CRE-Luc cells express luciferase under the control of the cAMP response element (CRE), which allows for indirect measurement of intracellular cAMP accumulation. HEK293T-CRE-Luc cells were stably transfected with human RXFP2 (HEK-CRE-Luc-RXFP2) or transiently transfected as above with mouse Rxfp2 (HEK-CRE-Luc-Rxfp2). HEK-CRE-Luc-RXFP2 and HEK-CRE-Luc-Rxfp2 cells were seeded at 15,000 and 30,000 cells per well, respectively, in 96-well plates using serum-free DMEM medium and incubated overnight at 37 °C, 5% CO2. After 18 h, cells were treated with a titration of compound, a titration of INSL3, 5 μM forskolin or DMSO vehicle. After treatment, cells were incubated for 3 h at 37 °C, 5% CO2. […] Plates were incubated for 40 min at room temperature protected from light and the luciferase output was read on a CLARIOstar plate reader. […]\nResults are expressed as mean ± SEM of 3 independent experim ents. […]"}, "FPR1": {"biological_target": "FPR1 (Homo sapiens, UniProt P21462)", "sequence (P21462 whole entry)": "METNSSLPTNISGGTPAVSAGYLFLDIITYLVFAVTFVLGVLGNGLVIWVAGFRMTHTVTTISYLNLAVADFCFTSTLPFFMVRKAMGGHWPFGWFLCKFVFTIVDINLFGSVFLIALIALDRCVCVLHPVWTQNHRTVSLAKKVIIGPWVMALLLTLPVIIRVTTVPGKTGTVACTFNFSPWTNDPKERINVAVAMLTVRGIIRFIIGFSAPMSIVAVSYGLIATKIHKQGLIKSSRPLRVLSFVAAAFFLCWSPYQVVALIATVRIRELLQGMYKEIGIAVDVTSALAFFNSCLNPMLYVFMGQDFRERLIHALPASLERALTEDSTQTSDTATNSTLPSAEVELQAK", "assay": "PRESTO-Tango β-arrestin recruitment, FPR1", "settings": "10 µM compound; basal level of detection 3-fold RLU"}, "RXFP2": {"biological_target": "RXFP2 (Homo sapiens, UniProt Q8WXD0)", "sequence (Q8WXD0 whole entry)": "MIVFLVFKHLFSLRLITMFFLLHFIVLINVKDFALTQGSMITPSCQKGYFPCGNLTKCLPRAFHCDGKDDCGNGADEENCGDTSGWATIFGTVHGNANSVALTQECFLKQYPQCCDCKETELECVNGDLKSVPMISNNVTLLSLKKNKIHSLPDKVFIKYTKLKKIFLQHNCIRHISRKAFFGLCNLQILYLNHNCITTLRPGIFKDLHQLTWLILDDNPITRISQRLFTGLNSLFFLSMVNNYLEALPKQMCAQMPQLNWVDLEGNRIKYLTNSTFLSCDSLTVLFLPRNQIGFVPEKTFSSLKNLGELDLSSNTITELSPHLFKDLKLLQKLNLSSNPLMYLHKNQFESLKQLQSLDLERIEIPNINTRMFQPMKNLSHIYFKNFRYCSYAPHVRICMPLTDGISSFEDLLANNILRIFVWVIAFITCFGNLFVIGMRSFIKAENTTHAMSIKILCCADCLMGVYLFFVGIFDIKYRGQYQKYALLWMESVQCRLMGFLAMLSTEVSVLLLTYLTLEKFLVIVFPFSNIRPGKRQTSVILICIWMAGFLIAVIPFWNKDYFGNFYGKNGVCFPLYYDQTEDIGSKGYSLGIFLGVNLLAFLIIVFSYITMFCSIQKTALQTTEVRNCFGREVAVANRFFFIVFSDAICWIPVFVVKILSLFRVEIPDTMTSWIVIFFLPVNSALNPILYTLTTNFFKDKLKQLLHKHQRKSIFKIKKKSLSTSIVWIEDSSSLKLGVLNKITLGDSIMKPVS", "assay": "Confirmatory CRE-luciferase reporter assay in HEK-CRE-Luc-RXFP2 cells", "design": "FLAG (N); expressed in transfected cells", "settings": "for % Eff (CRE-luciferase): experiments (1)-(3)", "experimental": "A quantitative high-throughput screening (HTS) of more than 80 K compounds of the NCATS/NIH diversity collection was performed at four concentrations in HEK293T cells stably expressing human RXFP2 to identify candidate agonists. A homogenous time resolved fluorescence (HTRF) assay was used to directly detect compound-induced cAMP accumulation, with forskolin or human recombinant INSL3 serving as positive controls. […] Selected compounds with reasonable activity in dose response were also tested in a confirmatory orthogonal screening using a cAMP response element (CRE) driven luciferase reporter assay in HEK-CRE-Luc-RXFP2 cells, and in a counter-screen with cells transfected with human relaxin/insulin-like family peptide receptor 1 (RXFP1). Finally, we performed an extensive structure activity relationship campaign (SAR) to increase both the agonist efficacy and potency of the lead series. […] A confirmatory CRE-luciferase cAMP screen was used to eliminate any potential false positives due to assay detection artifacts (Supplementary Fig. 1a).\nHEK293T-CRE-Luc cells express luciferase under the control of the cAMP response element (CRE), which allows for indirect measurement of intracellular cAMP accumulation. HEK293T-CRE-Luc cells were stably transfected with human RXFP2 (HEK-CRE-Luc-RXFP2) or transiently transfected as above with mouse Rxfp2 (HEK-CRE-Luc-Rxfp2). HEK-CRE-Luc-RXFP2 and HEK-CRE-Luc-Rxfp2 cells were seeded at 15,000 and 30,000 cells per well, respectively, in 96-well plates using serum-free DMEM medium and incubated overnight at 37 °C, 5% CO2. After 18 h, cells were treated with a titration of compound, a titration of INSL3, 5 μM forskolin or DMSO vehicle. After treatment, cells were incubated for 3 h at 37 °C, 5% CO2. Plates were then allowed to equilibrate for 30 min at room temperature and an equal volume of substrate (Amplite Luciferase Reporter Gene Assay Kit, AAT Bioquest, Sunnyvale, CA) was added to each well. Plates were incubated for 40 min at room temperature protected from light and the luciferase output was read on a CLARIOstar plate reader.\nSupplementary Fig. 1: Compounds activate both human and mouse RXFP2 receptors. a Confirmatory CRE-Luciferase screening of RXFP2 agonists in st a b ly transfected HEK-CRE-Luc-RXFP2 cells. b Activation of mouse RXFP2 receptor by the compounds in transiently transfected HEK293T-CRE-Luc cells. Compound response was normalized to 100 nM INSL3 as 100% efficacy and DMSO vehicle as 0% efficacy.\nResults are expressed as mean ± SEM of 3 independent experim ents.\n(1 picture or pasted object on this page, not shown here)"}},
  "note": "Values joined by “and” are separate entries in the source; they are usually repeats but may differ in a detail not shown here. Identical values can stand only once. “Also recorded” adds a separate entry of the source.",
  "data": [
    {"compound": "O=C1Nc2ccc(-c3cc(C(F)(F)F)cc(C(F)(F)F)c3)cc2C(=O)N2CCN(C(=O)COc3ccc(OC(F)(F)F)cc3I)C[C@@H]12", "note": "[compound 6641]", "values": [
      {"measurement": "activation at 0.0251 µM", "setting": "mouse RXFP2; mouse RXFP2, Log [M] -7.60, experiments (1)-(3), read-out: % Eff (CRE-luciferase)", "result": 28.9, "unit": "%"},
      {"measurement": "agonism of mouse RXFP2 in CRE-luciferase reporter assay", "setting": "mouse RXFP2; transiently transfected cells", "result": "activate the mouse RXFP2 receptor; also recorded: full agonist"},
      {"measurement": "β-arrestin recruitment, FPR1 (mean ± SEM)", "setting": "FPR1", "result": "3.11 ± 0.29", "unit": "fold RLU"},
      {"measurement": "agonism of human RXFP2 in CRE-luciferase reporter assay", "setting": "RXFP2; HEK-CRE-Luc-RXFP2", "result": "full agonist"},
      {"measurement": "% Eff (CRE-luciferase)", "setting": "RXFP2; Log [M] -4.60, 100 nM INSL3 = 100%, DMSO = 0%", "result": "112.29% and 97.22% and 133.29%"},
      {"measurement": "% Eff (CRE-luciferase)", "setting": "RXFP2; Log [M] -5.00", "result": "116.16% and 119.1% and 157.5%"},
      {"measurement": "% Eff (CRE-luciferase)", "setting": "RXFP2; Log [M] -5.78", "result": "114.59% and 98.52% and 126.86%"},
      {"measurement": "% Eff (CRE-luciferase)", "setting": "RXFP2; Log [M] -6.56", "result": "113.18% and 86.94% and 103.38%"},
      {"measurement": "% Eff (CRE-luciferase)", "setting": "RXFP2; Log [M] -7.33", "result": "77.02% and 61.6% and 70.55%"},
      {"measurement": "% Eff (CRE-luciferase)", "setting": "RXFP2; Log [M] -8.11", "result": "44.24% and 30.05% and 30.02%"},
      {"measurement": "% Eff (CRE-luciferase)", "setting": "RXFP2; Log [M] -8.89", "result": "14.74% and 8.06% and 7.85%"},
      {"measurement": "% Eff (CRE-luciferase)", "setting": "RXFP2; Log [M] -9.67", "result": "6.98% and 1.71% and 0.6%"}
    ]}
  ]
}
